The record followed here is patent publication US20040259770A1, “Method for determining leukocyte activation” (Rush University Medical Center, priority 2003, published 2004).

Assay [1] concerns eosinophils. Description: Eosinophil superoxide production (cytochrome c reduction) in protein-coated tissue culture wells. Format: cell-based, human. As to conditions: for inhibition of superoxide production stimulated by immobilized lactoferrin (in words): lower concentrations of heparin, any of the concentrations of chondroitin sulfate (30 to 1000 micrograms per milliliter); for inhibition of superoxide production stimulated by 30 micrograms per milliliter of immobilized lactoferrin: heparin 1000 micrograms per milliliter (highest concentration tested), 120 minutes at 37° C. How it is done: Neutrophils were isolated from venous blood of healthy adult volunteers by density gradient centrifugation through lymphocyte separation medium (BioWhittaker; Walkersville, Md.) as described previously (Haskell M. D., et al., Blood 86:4627-4637 (1995)) with one modification. Isotonicity was restored following the brief hypotonic lysis steps by the addition of 2× concentrated Hank's Balanced Salt Solution (HBSS) (Gibco; Grand Island, N.Y.) (without Ca^2+ and Mg^2+) containing 5 mM HEPES, pH 7.4. The cells were suspended in HEPES (10 mM)-buffered HBSS (with Ca^2+ and Mg^2+), pH 7.4, containing 1 milligram per milliliter of human serum albumin (HSA) (Sigma Chemical Co.) (HEPES-HBSS-HSA buffer). Neutrophil purity was routinely greater than 95 percent, with eosinophils representing the remainder of the cells. Eosinophils were isolated from the neutrophil preparations by negative selection (Hansel T. T., et al., J. Immunol. Meth. 145:105-10 (1991)) using anti-CD16 immunomagnetic beads as described by the manufacturer (Miltenyi Biotec, Inc., Auburn, Calif.). The eosinophils were suspended in HEPES-HBSS-HSA buffer. Eosinophil purity was routinely greater than 95 percent as determined by counting Wright-stained cytospin preparations. In some assays, an aliquot of the neutrophil preparation was held on ice for later use.
Superoxide production was measured essentially as described elsewhere (Motegi, Y., and H. Kita, J. Immunol. 161:4340 (1998)). Briefly, wells in a 96-well (flat bottom) tissue culture plate (Corning, Inc.; Corning, N.Y.) were coated with human milk lactoferrin (Sigma Chemical Co.) or human secretory IgA (ICN Biomedical; Aurora, Ohio) by incubation with 50 microliters of the indicated concentrations of the proteins in phosphate buffered saline (PBS) overnight at 4° C. Non-specific protein binding sites were blocked by subsequent incubation with 100 microliters of 25 milligrams per milliliter of HSA in PBS for 2 hours at 37° C., and the tissue culture wells were washed twice with PBS before use. Aliquots (5×10^4 cells) of eosinophils or neutrophils were added to the wells and were incubated in HEPES-HBSS—HSA buffer containing 50 micromolar cytochrome c (Sigma Chemical Co.) for 120 minutes at 37° C. in a Ceres UV900HDi microplate reader (Bio-Tek Instruments, Inc., Winooski, Vt.). Total incubation volume was 0.2 milliliters. Absorbance at 550 nanometers was recorded at 15-minute intervals, and superoxide production was calculated as described previously (Motegi, Y., and H. Kita, J. Immunol. 161:4340 (1998)). Results are expressed as nanomoles superoxide per 10^5 cells after subtraction of spontaneous production, which was measured in tissue culture wells coated only with HSA. GM-CSF (R & D Systems; Minneapolis, Minn.), porcine heparin (Sigma Chemical Co.), or chondroitin sulfate C (Sigma Chemical Co.) was added to the incubation mixtures in some assays as indicated.

For assay [2], the system named is lactoferrin receptors on eosinophils. Description: Binding of 125I-labeled lactoferrin by eosinophils, Scatchard analysis. Particulars: 5 micromolar transferrin, 90 nanomolar 125I-labeled lactoferrin, n=2. Set-up: species or system human. As for the experimental part: Lactoferrin (100 micrograms) was radioiodinated using IODO-GEN iodination reagent (Pierce; Rockford, Ill.) according to the procedure supplied by the manufacturer. The lactoferrin was incubated with 400 micro Curies Na^125I (PerkinElmer Life Sciences; Boston, Mass.) for 3 min, and the ^125I-labeled lactoferrin was separated from free Na^125I by chromatography through a 5-ml D-Salt dextran desalting column (Pierce) using PBS as the elution buffer. Protein concentration of the ^125I-labeled lactoferrin was measured by the BCA assay (Pierce). Specific activity of the ^125I-labeled lactoferrin was 34,800 cpm/pmole. […] Binding of ^125I-labeled lactoferrin by eosinophils was determined using a modification of previously described protocols for eosinophils. Motegi et al. J. Immunol. […] In some experiments as indicated, binding was measured in the presence of excess unlabeled transferrin. […] The supernatant was removed by careful aspiration, and after quick-freezing on dry ice the tip of the tube containing the cell pellet was excised and the radioactivity was measured by gamma counting (Beckman Coulter Gamma 5500B). Specific binding was determined as the difference between total binding and binding in the presence of the excess unlabeled lactoferrin. Binding constants were determined by Scatchard analysis (Scatchard, G., Ann. N.Y. Acad. Sci. 51:660 (1949)).

Assay [3] deals with eosinophils. Briefly: Eosinophil leukotriene C4 production by ELISA. Format: cell-based, human. How it is done: Eosinophils (2×10^5) were incubated in the presence and absence of 100 pg/ml GM-CSF in RPMI 1640 containing 10 mM HEPES for 1 hr at 37° C. in tissue culture wells precoated with lactoferrin or secretory IgA as above with one modification. The tissue culture wells were not treated with HSA and HSA was not added to the incubation buffer to minimize loss of leukotriene C4. Total incubation volume was 0.2 ml. Reactions were stopped by centrifugation at 300 g for 5 min at 4° C., and supernatants were stored at −20° C. until measurement of leukotriene C4 content by a leukotriene C4/D4/E4 ELISA (Amersham Pharmacia Biotech; Piscataway, N.J.). Spontaneous leukotriene C4 production was determined with eosinophils incubated in untreated tissue culture wells.
In general terms: In an ELISA, binding on a coated surface is turned into a signal by an enzyme label.

In assay [4] the test system is eosinophils. Description: Eosinophil degranulation: EDN release by ELISA. Format: cell-based, human. As to conditions: 100 picograms per milliliter GM-CSF, 3 and 10 micrograms per milliliter immobilized lactoferrin. How it is done:
Eosinophils (2×10^5) were incubated in the presence and absence of 100 picograms per milliliter of GM-CSF in RPMI 1640 containing 1 milligram per milliliter of HSA for 4 hours at 37° C. in 5 percent CO2 in tissue culture wells precoated with lactoferrin or secretory IgA as above. Total incubation volume was 0.2 milliliters. Reactions were stopped by centrifugation at 300 g for 5 minutes at 4° C., and supernatants were stored at −20° C. until measurement of eosinophil-derived neurotoxin (EDN) content by specific ELISA (MBL International, Watertown, Mass.). Spontaneous release of EDN was determined with cells incubated in HSA-coated wells.

Regarding “chondroitin sulfate [reference compound]”, the “effect on superoxide production stimulated by immobilized lactoferrin (in words)” value in the assay on eosinophils [1] (1000 micrograms per milliliter, 30 micrograms per milliliter immobilized lactoferrin) is on record as “slight, but statistically significant, increase in superoxide production”. The “inhibition of superoxide production stimulated by immobilized lactoferrin (in words)” value in the assay with eosinophils [1] is given as “neither the lower concentrations of heparin nor any of the concentrations of chondroitin sulfate inhibited the eosinophil superoxide production”.
As for heparin [reference compound], the “inhibition of superoxide production stimulated by 10 micrograms per milliliter immobilized secretory IgA” value with eosinophils [1] (1000 micrograms per milliliter heparin, not statistically significant (p=0.07)) is listed as 28+/−11%. For the same substance, in the assay on eosinophils [1], the “inhibition of superoxide production stimulated by 30 micrograms per milliliter of immobilized lactoferrin” value is reported as “approximately 25%” and the “inhibition of superoxide production stimulated by immobilized lactoferrin (in words)” value was “neither the lower concentrations of heparin nor any of the concentrations of chondroitin sulfate inhibited the eosinophil superoxide production”. Besides, in the assay on eosinophils [1] (listed as Heparin), the “inhibition of superoxide production stimulated by 30 micrograms per milliliter of immobilized lactoferrin” value turned out to be 25%.
Regarding “transferrin: unlabeled transferrin used in excess as competitor in the binding experiments [reference compound]”, the “inhibition of eosinophil binding of 125I-labeled lactoferrin” value in assay [2] is recorded as “not inhibited”.
Consider “GM-CSF: granulocyte macrophage colony stimulating factor (R & D Systems)”, for which the “leukotriene C4 production” value in the assay with eosinophils [3] (100 picograms per milliliter GM-CSF alone, 1 hour) was 175 picograms leukotriene C4 per 10^6 eosinophils. In the assay on eosinophils [3] (100 picograms per milliliter GM-CSF, 10 to 100 micrograms per milliliter immobilized lactoferrin), the “effect of GM-CSF on leukotriene C4 release stimulated by immobilized lactoferrin” value is “significantly enhanced leukotriene C4 release”. The “reduction by GM-CSF of the concentration of immobilized lactoferrin required for maximal superoxide production or EDN release” value in the assay with eosinophils [1] (100 picograms per milliliter GM-CSF) is recorded as “approximately three-fold”. Besides, the “effect of GM-CSF on superoxide production stimulated by immobilized lactoferrin” value in the assay with eosinophils [1] (100 picograms per milliliter GM-CSF, 10 micrograms per milliliter immobilized lactoferrin) is “enhanced the amount of superoxide production”; with eosinophils [1] (100 picograms per milliliter GM-CSF, higher concentrations of immobilized lactoferrin), “did not appear to increase the level of superoxide production”. In addition, the “GM-CSF stimulated superoxide production” value in the assay on eosinophils [1] (GM-CSF alone (100 picograms per milliliter), 2-hour time point, five assays) is recorded as 2.8±0.7 nanomoles of superoxide per 10^5 eosinophils. Also, the “effect of GM-CSF on EDN release stimulated by immobilized lactoferrin” value in the assay on eosinophils [4] is recorded as “significantly enhanced EDN release”.
As to “immobilized transferrin: transferrin, family member of lactoferrin, coated on tissue culture wells [reference compound]”, in the assay on eosinophils [1] (1 to 100 micrograms per milliliter of the protein, 2 hours at 37° C), the “stimulation of eosinophil superoxide production (in words)” value was “did not stimulate superoxide production”.
